Experimental data taken from PubChem BioAssay (NCI).
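Test compounds were applied to cells in 96-well plates for 48 hours at 5 doses. Abbreviation: GI50, concentration required for 50% inhibition of growth. Definition used: TGI = concentration required for complete inhibition of growth.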

system: U251 CNS; assay: inhibition of tumour cell growth, NCI panel, 48 h

SMILES	GI50 [µM]	TGI [µM]
Cc1cc(NC(=O)c2ccc(C)c(Nc3nccc(-c4cccnc4)n3)c2)cc(-n2cnc(C)c2)c1	1.99	7.61
O=C(O)c1c(-c2nccc3ccccc23)[nH]c(-c2ccccc2)c1S(=O)(=O)O		> 100
Cc1[nH]n(-c2cccc(Cl)c2)c(=O)c1/C=C1\C=Nc2ccc(Br)cc21	2.83	8.65
CCCS(=O)(=O)Nc1ccc(Nc2c3ccccc3nc3ccccc23)c(OC)c1		4.41
CCN(CC)CC(C)(C)C(=O)/C=C/c1ccc(Cl)c(Cl)c1	1.71	3.15
O=C(O)Cc1c(O)ccc2ccccc12		> 100
Cc1ccc(Nc2nc(N)c(C(=O)c3ccc(C#N)cc3)s2)cc1	0.434	> 87.3
CN(C)Cc1c[nH]c2c1C(=O)c1c(c(O)c3ccccc3c1O)C2=O	5.56	18.7
CN1CCc2c(Sc3ccc(C(=O)NO)cc3)c3ccccc3n2C1	1.6	3.29
CC(=O)O[C@@H]1C[C@]2(C(C)C)O[C@@]1(C)[C@@H]1CCC(C)=C1[C@@H]2OC(=O)/C=C/c1ccccc1	48.4	> 100
COc1ccc(-c2cc(-c3cccn3C)c(C#N)c(N)n2)cc1OC	> 100	> 100

system: BT-549 breast; assay: inhibition of tumour cell growth, NCI panel, 48 h

SMILES	GI50 [µM]	TGI [µM]
Cc1cc(NC(=O)c2ccc(C)c(Nc3nccc(-c4cccnc4)n3)c2)cc(-n2cnc(C)c2)c1	0.159	9.98
O=C(O)c1c(-c2nccc3ccccc23)[nH]c(-c2ccccc2)c1S(=O)(=O)O		> 100
Cc1[nH]n(-c2cccc(Cl)c2)c(=O)c1/C=C1\C=Nc2ccc(Br)cc21	7.89	30
CCCS(=O)(=O)Nc1ccc(Nc2c3ccccc3nc3ccccc23)c(OC)c1		9.99
CCN(CC)CC(C)(C)C(=O)/C=C/c1ccc(Cl)c(Cl)c1	1.72	3.12
O=C(O)Cc1c(O)ccc2ccccc12		> 100
Cc1ccc(Nc2nc(N)c(C(=O)c3ccc(C#N)cc3)s2)cc1	0.475	> 60.9
CN(C)Cc1c[nH]c2c1C(=O)c1c(c(O)c3ccccc3c1O)C2=O	13.7	26.5
CN1CCc2c(Sc3ccc(C(=O)NO)cc3)c3ccccc3n2C1	2.39	6.19
CC(=O)O[C@@H]1C[C@]2(C(C)C)O[C@@]1(C)[C@@H]1CCC(C)=C1[C@@H]2OC(=O)/C=C/c1ccccc1	51.3	> 100
COc1ccc(-c2cc(-c3cccn3C)c(C#N)c(N)n2)cc1OC	64	> 100

system: OVCAR-3 ovarian; assay: inhibition of tumour cell growth, NCI panel, 48 h

SMILES	GI50 [µM]	TGI [µM]
Cc1cc(NC(=O)c2ccc(C)c(Nc3nccc(-c4cccnc4)n3)c2)cc(-n2cnc(C)c2)c1	1.87	4.83
O=C(O)c1c(-c2nccc3ccccc23)[nH]c(-c2ccccc2)c1S(=O)(=O)O		> 100
Cc1[nH]n(-c2cccc(Cl)c2)c(=O)c1/C=C1\C=Nc2ccc(Br)cc21	1.82	3.54
CCCS(=O)(=O)Nc1ccc(Nc2c3ccccc3nc3ccccc23)c(OC)c1		7.86
CCN(CC)CC(C)(C)C(=O)/C=C/c1ccc(Cl)c(Cl)c1	1.53	2.88
O=C(O)Cc1c(O)ccc2ccccc12		> 100
Cc1ccc(Nc2nc(N)c(C(=O)c3ccc(C#N)cc3)s2)cc1	0.319	5.43
CN(C)Cc1c[nH]c2c1C(=O)c1c(c(O)c3ccccc3c1O)C2=O	2.44	13.9
CN1CCc2c(Sc3ccc(C(=O)NO)cc3)c3ccccc3n2C1	2.16	6.74
CC(=O)O[C@@H]1C[C@]2(C(C)C)O[C@@]1(C)[C@@H]1CCC(C)=C1[C@@H]2OC(=O)/C=C/c1ccccc1	22.5	> 100
COc1ccc(-c2cc(-c3cccn3C)c(C#N)c(N)n2)cc1OC	> 100	> 100

system: MDA-MB-435; assay: inhibition of tumour cell growth, NCI panel, 48 h

SMILES	GI50 [µM]	TGI [µM]
Cc1cc(NC(=O)c2ccc(C)c(Nc3nccc(-c4cccnc4)n3)c2)cc(-n2cnc(C)c2)c1	2.12	8.76
O=C(O)c1c(-c2nccc3ccccc23)[nH]c(-c2ccccc2)c1S(=O)(=O)O		> 100
Cc1[nH]n(-c2cccc(Cl)c2)c(=O)c1/C=C1\C=Nc2ccc(Br)cc21	6.78	> 100
CCCS(=O)(=O)Nc1ccc(Nc2c3ccccc3nc3ccccc23)c(OC)c1		26.3
CCN(CC)CC(C)(C)C(=O)/C=C/c1ccc(Cl)c(Cl)c1	1.6	3.28
O=C(O)Cc1c(O)ccc2ccccc12		> 100
Cc1ccc(Nc2nc(N)c(C(=O)c3ccc(C#N)cc3)s2)cc1	0.0779	
CN(C)Cc1c[nH]c2c1C(=O)c1c(c(O)c3ccccc3c1O)C2=O	10.6	23
CN1CCc2c(Sc3ccc(C(=O)NO)cc3)c3ccccc3n2C1	1.61	3.34
CC(=O)O[C@@H]1C[C@]2(C(C)C)O[C@@]1(C)[C@@H]1CCC(C)=C1[C@@H]2OC(=O)/C=C/c1ccccc1	39.1	> 100
COc1ccc(-c2cc(-c3cccn3C)c(C#N)c(N)n2)cc1OC	> 100	> 100

system: MDA-MB-231 breast; assay: inhibition of tumour cell growth, NCI panel, 48 h

SMILES	GI50 [µM]	TGI [µM]
Cc1cc(NC(=O)c2ccc(C)c(Nc3nccc(-c4cccnc4)n3)c2)cc(-n2cnc(C)c2)c1	1.25	5.45
O=C(O)c1c(-c2nccc3ccccc23)[nH]c(-c2ccccc2)c1S(=O)(=O)O		> 100
Cc1[nH]n(-c2cccc(Cl)c2)c(=O)c1/C=C1\C=Nc2ccc(Br)cc21	3.4	15.3
CCCS(=O)(=O)Nc1ccc(Nc2c3ccccc3nc3ccccc23)c(OC)c1		10.4
CCN(CC)CC(C)(C)C(=O)/C=C/c1ccc(Cl)c(Cl)c1	2.06	4.26
O=C(O)Cc1c(O)ccc2ccccc12		> 100
Cc1ccc(Nc2nc(N)c(C(=O)c3ccc(C#N)cc3)s2)cc1	1.01	> 100
CN(C)Cc1c[nH]c2c1C(=O)c1c(c(O)c3ccccc3c1O)C2=O	11.6	25
CN1CCc2c(Sc3ccc(C(=O)NO)cc3)c3ccccc3n2C1	1.75	4.19
CC(=O)O[C@@H]1C[C@]2(C(C)C)O[C@@]1(C)[C@@H]1CCC(C)=C1[C@@H]2OC(=O)/C=C/c1ccccc1	49.3	> 100
COc1ccc(-c2cc(-c3cccn3C)c(C#N)c(N)n2)cc1OC	38.3	> 100

system: NCI-H460 lung; assay: inhibition of tumour cell growth, NCI panel, 48 h

SMILES	GI50 [µM]	TGI [µM]
Cc1cc(NC(=O)c2ccc(C)c(Nc3nccc(-c4cccnc4)n3)c2)cc(-n2cnc(C)c2)c1	0.0794	4.16
O=C(O)c1c(-c2nccc3ccccc23)[nH]c(-c2ccccc2)c1S(=O)(=O)O		> 100
Cc1[nH]n(-c2cccc(Cl)c2)c(=O)c1/C=C1\C=Nc2ccc(Br)cc21	1.78	3.53
CCCS(=O)(=O)Nc1ccc(Nc2c3ccccc3nc3ccccc23)c(OC)c1		2.6
CCN(CC)CC(C)(C)C(=O)/C=C/c1ccc(Cl)c(Cl)c1	2.07	4.36
O=C(O)Cc1c(O)ccc2ccccc12		> 100
Cc1ccc(Nc2nc(N)c(C(=O)c3ccc(C#N)cc3)s2)cc1	0.389	> 100
CN(C)Cc1c[nH]c2c1C(=O)c1c(c(O)c3ccccc3c1O)C2=O	3.54	16
CN1CCc2c(Sc3ccc(C(=O)NO)cc3)c3ccccc3n2C1	2.34	7.73
CC(=O)O[C@@H]1C[C@]2(C(C)C)O[C@@]1(C)[C@@H]1CCC(C)=C1[C@@H]2OC(=O)/C=C/c1ccccc1	30.9	> 100
COc1ccc(-c2cc(-c3cccn3C)c(C#N)c(N)n2)cc1OC	> 100	> 100

system: KM12 colon; assay: inhibition of tumour cell growth, NCI panel, 48 h

SMILES	GI50 [µM]	TGI [µM]
Cc1cc(NC(=O)c2ccc(C)c(Nc3nccc(-c4cccnc4)n3)c2)cc(-n2cnc(C)c2)c1	4.83	14.7
O=C(O)c1c(-c2nccc3ccccc23)[nH]c(-c2ccccc2)c1S(=O)(=O)O		> 100
Cc1[nH]n(-c2cccc(Cl)c2)c(=O)c1/C=C1\C=Nc2ccc(Br)cc21	6.65	> 100
CCCS(=O)(=O)Nc1ccc(Nc2c3ccccc3nc3ccccc23)c(OC)c1		14.7
CCN(CC)CC(C)(C)C(=O)/C=C/c1ccc(Cl)c(Cl)c1	1.67	3.28
O=C(O)Cc1c(O)ccc2ccccc12		> 100
Cc1ccc(Nc2nc(N)c(C(=O)c3ccc(C#N)cc3)s2)cc1	0.338	> 87.1
CN(C)Cc1c[nH]c2c1C(=O)c1c(c(O)c3ccccc3c1O)C2=O	4.66	20.9
CN1CCc2c(Sc3ccc(C(=O)NO)cc3)c3ccccc3n2C1	1.72	3.67
CC(=O)O[C@@H]1C[C@]2(C(C)C)O[C@@]1(C)[C@@H]1CCC(C)=C1[C@@H]2OC(=O)/C=C/c1ccccc1	40	> 100
COc1ccc(-c2cc(-c3cccn3C)c(C#N)c(N)n2)cc1OC	> 100	> 100

system: IGROV1 ovarian; assay: inhibition of tumour cell growth, NCI panel, 48 h

SMILES	GI50 [µM]	TGI [µM]
Cc1cc(NC(=O)c2ccc(C)c(Nc3nccc(-c4cccnc4)n3)c2)cc(-n2cnc(C)c2)c1	3.93	13.5
O=C(O)c1c(-c2nccc3ccccc23)[nH]c(-c2ccccc2)c1S(=O)(=O)O		> 100
Cc1[nH]n(-c2cccc(Cl)c2)c(=O)c1/C=C1\C=Nc2ccc(Br)cc21	3.04	9.34
CCCS(=O)(=O)Nc1ccc(Nc2c3ccccc3nc3ccccc23)c(OC)c1		18.2
CCN(CC)CC(C)(C)C(=O)/C=C/c1ccc(Cl)c(Cl)c1	2.01	4.95
O=C(O)Cc1c(O)ccc2ccccc12		> 100
Cc1ccc(Nc2nc(N)c(C(=O)c3ccc(C#N)cc3)s2)cc1	1.2	> 100
CN(C)Cc1c[nH]c2c1C(=O)c1c(c(O)c3ccccc3c1O)C2=O	3.34	37.2
CN1CCc2c(Sc3ccc(C(=O)NO)cc3)c3ccccc3n2C1	2.84	9.06
CC(=O)O[C@@H]1C[C@]2(C(C)C)O[C@@]1(C)[C@@H]1CCC(C)=C1[C@@H]2OC(=O)/C=C/c1ccccc1	> 100	> 100
COc1ccc(-c2cc(-c3cccn3C)c(C#N)c(N)n2)cc1OC	96	> 100

system: MALME-3M melanoma; assay: inhibition of tumour cell growth, NCI panel, 48 h

SMILES	GI50 [µM]	TGI [µM]
Cc1cc(NC(=O)c2ccc(C)c(Nc3nccc(-c4cccnc4)n3)c2)cc(-n2cnc(C)c2)c1	2.39	10.6
O=C(O)c1c(-c2nccc3ccccc23)[nH]c(-c2ccccc2)c1S(=O)(=O)O		> 100
Cc1[nH]n(-c2cccc(Cl)c2)c(=O)c1/C=C1\C=Nc2ccc(Br)cc21	3.15	13.1
CCCS(=O)(=O)Nc1ccc(Nc2c3ccccc3nc3ccccc23)c(OC)c1		6.68
CCN(CC)CC(C)(C)C(=O)/C=C/c1ccc(Cl)c(Cl)c1	1.8	3.61
O=C(O)Cc1c(O)ccc2ccccc12		> 100
Cc1ccc(Nc2nc(N)c(C(=O)c3ccc(C#N)cc3)s2)cc1	5.25	> 100
CN(C)Cc1c[nH]c2c1C(=O)c1c(c(O)c3ccccc3c1O)C2=O	9.61	23.3
CN1CCc2c(Sc3ccc(C(=O)NO)cc3)c3ccccc3n2C1	1.12	4.33
CC(=O)O[C@@H]1C[C@]2(C(C)C)O[C@@]1(C)[C@@H]1CCC(C)=C1[C@@H]2OC(=O)/C=C/c1ccccc1	39.2	> 100
COc1ccc(-c2cc(-c3cccn3C)c(C#N)c(N)n2)cc1OC	> 100	> 100

system: NCI-H23 lung; assay: inhibition of tumour cell growth, NCI panel, 48 h

SMILES	GI50 [µM]	TGI [µM]
Cc1cc(NC(=O)c2ccc(C)c(Nc3nccc(-c4cccnc4)n3)c2)cc(-n2cnc(C)c2)c1	9.44	> 34.1
O=C(O)c1c(-c2nccc3ccccc23)[nH]c(-c2ccccc2)c1S(=O)(=O)O		> 100
Cc1[nH]n(-c2cccc(Cl)c2)c(=O)c1/C=C1\C=Nc2ccc(Br)cc21	6.65	26.4
CCCS(=O)(=O)Nc1ccc(Nc2c3ccccc3nc3ccccc23)c(OC)c1		8.26
CCN(CC)CC(C)(C)C(=O)/C=C/c1ccc(Cl)c(Cl)c1	1.9	4.17
O=C(O)Cc1c(O)ccc2ccccc12		> 100
Cc1ccc(Nc2nc(N)c(C(=O)c3ccc(C#N)cc3)s2)cc1	0.743	> 100
CN(C)Cc1c[nH]c2c1C(=O)c1c(c(O)c3ccccc3c1O)C2=O	9.34	24.9
CN1CCc2c(Sc3ccc(C(=O)NO)cc3)c3ccccc3n2C1	1.7	3.88
CC(=O)O[C@@H]1C[C@]2(C(C)C)O[C@@]1(C)[C@@H]1CCC(C)=C1[C@@H]2OC(=O)/C=C/c1ccccc1	35.3	> 100
COc1ccc(-c2cc(-c3cccn3C)c(C#N)c(N)n2)cc1OC	> 100	> 100
